Results taken from patent publication EP4691482A1, “LONG-ACTING CALCITONIN ANALOG” (Chengdu Aoda Biotechnology Co., Ltd., priority 2023, dated 2024).

Molecular target: T1, calcitonin receptors (CTR) (Homo sapiens, UniProt P30988)
T1 construct: expressed in transfected cells; host or cells: cAMP Hunter HEK293-CT-R Gs cell line (HEK293, stably transfected)
T1 sequence (P30988 25-474): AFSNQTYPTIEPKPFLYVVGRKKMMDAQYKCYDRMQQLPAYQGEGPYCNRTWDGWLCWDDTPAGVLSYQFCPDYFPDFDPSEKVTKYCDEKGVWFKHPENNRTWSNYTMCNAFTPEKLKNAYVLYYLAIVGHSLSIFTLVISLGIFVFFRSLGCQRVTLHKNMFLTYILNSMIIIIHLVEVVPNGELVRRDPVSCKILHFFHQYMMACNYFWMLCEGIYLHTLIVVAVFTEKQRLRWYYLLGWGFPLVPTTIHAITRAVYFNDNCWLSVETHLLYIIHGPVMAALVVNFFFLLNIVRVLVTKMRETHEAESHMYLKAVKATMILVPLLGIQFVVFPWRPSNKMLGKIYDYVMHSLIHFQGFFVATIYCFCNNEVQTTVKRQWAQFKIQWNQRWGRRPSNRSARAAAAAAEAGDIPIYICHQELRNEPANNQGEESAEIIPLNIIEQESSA
Assay: cAMP determination (HTRF, cAMP Dynamic 2 Kit) in cAMP Hunter HEK293-CT-R Gs cell line
Format: cell-based
Conditions: HEK293 cell line stably expressing CT-R; intracellular cAMP, HTRF
Text: Upon activation by a ligand, Gas-coupled GPCRs can upregulate intracellular cAMP level, and cAMP, as a second messenger, can mediate a series of cellular responses. The cAMP Hunter HEK293-CT-R Gs cell line, which overexpresses Gas-coupled calcitonin receptors (CTR), was used. The binding of calcitonin (or an analog thereof) to the overexpressed CTR upregulates intracellular cAMP level. The amount of intracellular cAMP produced after activation by the calcitonin (or an analog thereof) was detected using a cAMP Dynamic 2 Kit to evaluate the biological activity of the calcitonin (or an analog thereof). HEK293 cell line stably expressing CT-R was used. Stably transfected cells were stimulated with various concentrations of agonists. The time-resolved fluorescence resonance energy signal from the cells after stimulation with different doses was measured using HTRF technology, from which the biological activity of the agonist was subsequently calculated.

Structure (SMILES) | EC50 [pM]
CC(C)C[C@H](NC(=O)[C@H](CCCCN)NC(=O)CNC(=O)[C@H](CC(C)C)NC(=O)[C@@H](NC(=O)[C@@H]1CSSC[C@H](N)C(=O)N[C@@H](CO)C(=O)N[C@@H](CC(N)=O)C(=O)N[C@@H](CC(C)C)C(=O)N[C@@H](CO)C(=O)N[C@@H]([C@@H](C)O)C(=O)N1)C(C)C)C(=O)N[C@@H](CO)C(=O)N[C@@H](CCC(N)=O)C(=O)N[C@@H](CCC(=O)O)C(=O)N[C@@H](CC(C)C)C(=O)N[C@@H](Cc1c[nH]cn1)C(=O)N[C@@H](CCCCNC(=O)CNC(=O)CC[C@H](NC(=O)CCCCCCCCCCCCCCCCCCC(=O)O)C(=O)O)C(=O)N[C@@H](CC(C)C)C(=O)N[C@@H](CCC(N)=O)C(=O)N[C@H](C(=O)N[C@@H](Cc1ccc(O)cc1)C(=O)N1CCC[C@H]1C(=O)N[C@@H](CCCNC(=N)N)C(=O)N[C@H](C(=O)N[C@@H](CC(N)=O)C(=O)N[C@H](C(=O)NCC(=O)N[C@@H](CO)C(=O)NCC(=O)N[C@H](C(=O)N1CCC[C@H]1C(N)=O)[C@@H](C)O)[C@@H](C)O)[C@@H](C)O)[C@@H](C)O [Compound 10, Cys-Ser-Asn-Leu-Ser-Thr-Cys-Val-Leu-Gly-Lys-Leu-Ser-Gln-Glu-Leu-His-Lys(Gly-yGlu-eicosanedioic acid)-Leu-Gln-Thr-Tyr-Pro-Arg-Thr-Asn-Thr-Gly-Ser-Gly-Thr-Pro-NH2] | 4.9
CC(C)C[C@H](NC(=O)[C@H](CCCCN)NC(=O)CNC(=O)[C@H](CC(C)C)NC(=O)[C@@H](NC(=O)[C@@H]1CSSC[C@H](N)C(=O)N[C@@H](CO)C(=O)N[C@@H](CC(N)=O)C(=O)N[C@@H](CC(C)C)C(=O)N[C@@H](CO)C(=O)N[C@@H]([C@@H](C)O)C(=O)N1)C(C)C)C(=O)N[C@@H](CO)C(=O)N[C@@H](CCC(N)=O)C(=O)N[C@@H](CCC(=O)O)C(=O)N[C@@H](CC(C)C)C(=O)N[C@@H](Cc1c[nH]cn1)C(=O)N[C@@H](CCCCNC(=O)CNC(=O)CNC(=O)CNC(=O)CNC(=O)CNC(=O)CC[C@H](NC(=O)CCCCCCCCCCCCCCCCCCC(=O)O)C(=O)O)C(=O)N[C@@H](CC(C)C)C(=O)N[C@@H](CCC(N)=O)C(=O)N[C@H](C(=O)N[C@@H](Cc1ccc(O)cc1)C(=O)N1CCC[C@H]1C(=O)N[C@@H](CCCNC(=N)N)C(=O)N[C@H](C(=O)N[C@@H](CC(N)=O)C(=O)N[C@H](C(=O)NCC(=O)N[C@@H](CO)C(=O)NCC(=O)N[C@H](C(=O)N1CCC[C@H]1C(N)=O)[C@@H](C)O)[C@@H](C)O)[C@@H](C)O)[C@@H](C)O [Compound 14] | 3.1
CC(C)C[C@H](NC(=O)[C@H](CCCCN)NC(=O)CNC(=O)[C@H](CC(C)C)NC(=O)[C@@H](NC(=O)[C@@H]1CSSC[C@H](N)C(=O)N[C@@H](CO)C(=O)N[C@@H](CC(N)=O)C(=O)N[C@@H](CC(C)C)C(=O)N[C@@H](CO)C(=O)N[C@@H]([C@@H](C)O)C(=O)N1)C(C)C)C(=O)N[C@@H](CO)C(=O)N[C@@H](CCC(N)=O)C(=O)N[C@@H](CCC(=O)O)C(=O)N[C@@H](CC(C)C)C(=O)N[C@@H](Cc1c[nH]cn1)C(=O)N[C@@H](CCCCNC(=O)CNC(=O)[C@H](CO)NC(=O)CNC(=O)[C@H](CO)NC(=O)CC[C@H](NC(=O)CCCCCCCCCCCCCCCCCCC(=O)O)C(=O)O)C(=O)N[C@@H](CC(C)C)C(=O)N[C@@H](CCC(N)=O)C(=O)N[C@H](C(=O)N[C@@H](Cc1ccc(O)cc1)C(=O)N1CCC[C@H]1C(=O)N[C@@H](CCCNC(=N)N)C(=O)N[C@H](C(=O)N[C@@H](CC(N)=O)C(=O)N[C@H](C(=O)NCC(=O)N[C@@H](CO)C(=O)NCC(=O)N[C@H](C(=O)N1CCC[C@H]1C(N)=O)[C@@H](C)O)[C@@H](C)O)[C@@H](C)O)[C@@H](C)O [Compound 7] | 4.4
CC(C)C[C@H](NC(=O)[C@H](CCCCN)NC(=O)CNC(=O)[C@H](CC(C)C)NC(=O)[C@@H](NC(=O)[C@@H]1CSSC[C@H](N)C(=O)N[C@@H](CO)C(=O)N[C@@H](CC(N)=O)C(=O)N[C@@H](CC(C)C)C(=O)N[C@@H](CO)C(=O)N[C@@H]([C@@H](C)O)C(=O)N1)C(C)C)C(=O)N[C@@H](CO)C(=O)N[C@@H](CCC(N)=O)C(=O)N[C@@H](CCC(=O)O)C(=O)N[C@@H](CC(C)C)C(=O)N[C@@H](Cc1c[nH]cn1)C(=O)N[C@@H](CCCCNC(=O)COCCOCCNC(=O)COCCOCCNC(=O)CC[C@H](NC(=O)CCCCCCCCCCCCCCCCCCC(=O)O)C(=O)O)C(=O)N[C@@H](CC(C)C)C(=O)N[C@@H](CCC(N)=O)C(=O)N[C@H](C(=O)N[C@@H](Cc1ccc(O)cc1)C(=O)N1CCC[C@H]1C(=O)N[C@@H](CCCNC(=N)N)C(=O)N[C@H](C(=O)N[C@@H](CC(N)=O)C(=O)N[C@H](C(=O)NCC(=O)N[C@@H](CO)C(=O)NCC(=O)N[C@H](C(=O)N1CCC[C@H]1C(N)=O)[C@@H](C)O)[C@@H](C)O)[C@@H](C)O)[C@@H](C)O [Compound 16, Cys-Ser-Asn-Leu-Ser-Thr-Cys-Val-Leu-Gly-Lys-Leu-Ser-Gln-Glu-Leu-His-Lys(AEEA-AEEA-γGlu-eicosanedioic acid)-Leu-Gln-Thr-Tyr-Pro-Arg-Thr-Asn-Thr-Gly-Ser-Gly-Thr-Pro-NH2] | 2.9
CC(C)C[C@H](NC(=O)[C@H](CCCCN)NC(=O)CNC(=O)[C@H](CC(C)C)NC(=O)[C@@H](NC(=O)[C@@H]1CSSC[C@H](N)C(=O)N[C@@H](CO)C(=O)N[C@@H](CC(N)=O)C(=O)N[C@@H](CC(C)C)C(=O)N[C@@H](CO)C(=O)N[C@@H]([C@@H](C)O)C(=O)N1)C(C)C)C(=O)N[C@@H](CO)C(=O)N[C@@H](CCC(N)=O)C(=O)N[C@@H](CCC(=O)O)C(=O)N[C@@H](CC(C)C)C(=O)N[C@@H](Cc1c[nH]cn1)C(=O)N[C@@H](CCCCNC(=O)CNC(=O)CNC(=O)[C@H](CO)NC(=O)CNC(=O)[C@H](CO)NC(=O)CNC(=O)CC[C@H](NC(=O)CCCCCCCCCCCCCCCCCCC(=O)O)C(=O)O)C(=O)N[C@@H](CC(C)C)C(=O)N[C@@H](CCC(N)=O)C(=O)N[C@H](C(=O)N[C@@H](Cc1ccc(O)cc1)C(=O)N1CCC[C@H]1C(=O)N[C@@H](CCCNC(=N)N)C(=O)N[C@H](C(=O)N[C@@H](CC(N)=O)C(=O)N[C@H](C(=O)NCC(=O)N[C@@H](CO)C(=O)NCC(=O)N[C@H](C(=O)N1CCC[C@H]1C(N)=O)[C@@H](C)O)[C@@H](C)O)[C@@H](C)O)[C@@H](C)O [Compound 8] | 3.7

Same assay, conditions: relative to Salmon Calcitonin = 100.0; HEK293 CT-R cAMP

Structure (SMILES) | Relative Activity% [%]
CC(C)C[C@H](NC(=O)[C@H](CCCCN)NC(=O)CNC(=O)[C@H](CC(C)C)NC(=O)[C@@H](NC(=O)[C@@H]1CSSC[C@H](N)C(=O)N[C@@H](CO)C(=O)N[C@@H](CC(N)=O)C(=O)N[C@@H](CC(C)C)C(=O)N[C@@H](CO)C(=O)N[C@@H]([C@@H](C)O)C(=O)N1)C(C)C)C(=O)N[C@@H](CO)C(=O)N[C@@H](CCC(N)=O)C(=O)N[C@@H](CCC(=O)O)C(=O)N[C@@H](CC(C)C)C(=O)N[C@@H](Cc1c[nH]cn1)C(=O)N[C@@H](CCCCNC(=O)COCCOCCOCCNC(=O)CC[C@H](NC(=O)CCCCCCCCCCCCCCCCC(=O)O)C(=O)O)C(=O)N[C@@H](CC(C)C)C(=O)N[C@@H](CCC(N)=O)C(=O)N[C@H](C(=O)N[C@@H](Cc1ccc(O)cc1)C(=O)N1CCC[C@H]1C(=O)N[C@@H](CCCNC(=N)N)C(=O)N[C@H](C(=O)N[C@@H](CC(N)=O)C(=O)N[C@H](C(=O)NCC(=O)N[C@@H](CO)C(=O)NCC(=O)N[C@H](C(=O)N1CCC[C@H]1C(N)=O)[C@@H](C)O)[C@@H](C)O)[C@@H](C)O)[C@@H](C)O [Compound 18, Cys-Ser-Asn-Leu-Ser-Thr-Cys-Val-Leu-Gly-Lys-Leu-Ser-Gln-Glu-Leu-His-Lys(PEG3CH2CO-γGlu-octadecanedioic acid)-Leu-Gln-Thr-Tyr-Pr o-Arg-Thr-Asn-Thr-Gly-Ser-Gly-Thr-Pro-NH2] | 271.4
CC(C)C[C@H](NC(=O)[C@H](CCCCN)NC(=O)CNC(=O)[C@H](CC(C)C)NC(=O)[C@@H](NC(=O)[C@@H]1CSSC[C@H](N)C(=O)N[C@@H](CO)C(=O)N[C@@H](CC(N)=O)C(=O)N[C@@H](CC(C)C)C(=O)N[C@@H](CO)C(=O)N[C@@H]([C@@H](C)O)C(=O)N1)C(C)C)C(=O)N[C@@H](CO)C(=O)N[C@@H](CCC(N)=O)C(=O)N[C@@H](CCC(=O)O)C(=O)N[C@@H](CC(C)C)C(=O)N[C@@H](Cc1c[nH]cn1)C(=O)N[C@@H](CCCCNC(=O)COCCOCCOCCOCCOCCOCCNC(=O)CC[C@H](NC(=O)CCCCCCCCCCCCCCCCCCC(=O)O)C(=O)O)C(=O)N[C@@H](CC(C)C)C(=O)N[C@@H](CCC(N)=O)C(=O)N[C@H](C(=O)N[C@@H](Cc1ccc(O)cc1)C(=O)N1CCC[C@H]1C(=O)N[C@@H](CCCNC(=N)N)C(=O)N[C@H](C(=O)N[C@@H](CC(N)=O)C(=O)N[C@H](C(=O)NCC(=O)N[C@@H](CO)C(=O)NCC(=O)N[C@H](C(=O)N1CCC[C@H]1C(N)=O)[C@@H](C)O)[C@@H](C)O)[C@@H](C)O)[C@@H](C)O [Compound 6, Cys-Ser-Asn-Leu-Ser-Thr-Cys-Val-Leu-Gly-Lys-Leu-Ser-Gln-Glu-Leu-His-Lys(PEG6CH2CO-yGlu-eicosanedioic acid)-Leu-Gln-Thr-Tyr-Pro-Arg-Thr-Asn-Thr-Gly-Ser-Gly-Thr-Pro-NH2] | 172.7
